Data: patent US7816345B2, “Phosphorus-containing prodrugs” (Metabasis Therapeutics, Inc., priority 1999, dated 2010)
Blank lines part the entries; values can stand above or below the molecule they belong to.

What was measured:
[1] = system: glucose production in isolated rat hepatocytes; test: Inhibition of glucose production in rat hepatocytes (Example I); format: cell-based; settings: for IC50: lactate/pyruvate as substrates, 1 hour
Procedure: Methods: Isolated rat hepatocytes were prepared from fasted Sprague Dawley rats (250-300 g) as described in Example G. Hepatocytes (75 mg wet weight/ml) were incubated in 1 ml Krebs bicarbonate buffer containing 10 mM glucose, and 1 mg/ml BSA. Incubations were carried out in a 95% oxygen, 5% carbon dioxide atmosphere in closed, 50-ml Falcon tubes submerged in a rapidly shaking water bath (37° C.). After 10 minutes of equilibration, lactate and pyruvate were added to 10 mM and 1 mM concentrations, respectively. Addition of these gluconeogenic substrates was immediately followed by the addition of test compound to concentrations ranging from 1-100 μM. After 1 hour, an aliquot (0.25 ml) was removed, and transferred to an Eppendorf tube and centrifuged. The resulting supernatant (50 μl) was then assayed for glucose content using a Glucose Oxidase kit (Sigma Chemical Co.) as per the manufacturer's instructions.

rat hepatocytes = test: Activation in isolated rat hepatocytes, intracellular triphosphate generation (Examples G, H); format: cell-based; settings: 250 μM, two hours of incubation
Procedure: (§1) Methods: Hepatocytes were prepared from fed, dexamethasone-induced Sprague-Dawley rats (300 g) according to the procedure of Berry and Friend (Berry, M. N., Friend, D. S. J. Cell Biol. 43, 506-520 (1969)) as modified by Groen (Groen, A. K. et al. Eur J. Biochem 122, 87-93 (1982)). Hepatocytes (62 mg wet weight/ml) were incubated in 2 ml Krebs bicarbonate buffer containing 10 mM glucose, and 1 mg/ml BSA. Incubations were carried out in a 95% oxygen, 5% carbon dioxide atmosphere in closed, 50-ml Falcon tubes submerged in a rapidly shaking water bath (37° C.). 3.1 and 3.2 were dissolved in methanol to yield 25 mM stock solutions, and then diluted into the cell suspension to yield a final concentration of 250 μM. Two hours following administration, aliquots of the cell suspension were removed and spun through a silicon/mineral oil layer into 10% perchloric acid. […] Detection was by uv absorbance at 254 nm. Peak areas were quantified by comparison of peak areas to authentic standards spiked into naive hepatocyte extracts.
Methods: 3.2 and acyclovir were evaluated in isolated rat hepatocytes at 250 μM as described in Example G.

rat embryos in culture = settings: cited from earlier work
[2] = system: P450 isozymes (CYP3A4, CYP1A2, CYP2C9) in human microsomal protein; settings: 0-100 μM inhibitor, 250 μM prodrug, 37° C.
Procedure: Prodrugs are evaluated for human microsome-catalyzed conversion to MPO2—(NHR^6−) in the absence and presence of specific inhibitors of three major P450 isozymes: ketoconazole (CYP3A4), furafylline (CYP1A2), and sulfaphenazole CYP2C9).
Methods: Reactions (0.5 ml @37° C.) consist of 0.2 M KH2PO4, 13 mM glucose-6-phosphate, 2.2 mM NADP+, 1 unit of glucose-6-phosphate dehydrogenase, 0-2.5 mg/ml human microsomal protein (In Vitro Technologies, Inc.), 250 μM prodrug, and 0-100 μM P450 isozyme inhibitor. Reactions are stopped by addition of methanol to a concentration of 60%, and filtered ([…] filter). MPO2—(NHR^6−) is quantified by standard reverse phase, ion-pairing, or ion exchange HPLC methods. Eluted peaks are quantified relative to authentic standards of known concentration.

[3] = system: hepatocytes isolated from rats in which CYP3A4 expression was induced; test: Activation in hepatocytes from dexamethasone-induced rats (Example J); format: cell-based, rat; settings: two hours of incubation
Procedure: as §1, with “acid. The cell extracts in the acid layers were neutralized by the addition of 0.3 volumes of 3M KOH/3M KHCO3, and the extract was then centrifuged, filtered (0.2 micron) and loaded onto an anion exchange HPLC column equilibrated with 70% A (10 mM ammonium phosphate pH 3.5, 6% ETOH) and 30% B (1 M ammonium phosphate pH 3.5, 6% ETOH).” for “acid.”, “extracts. […]” for “extracts.”

FBPase = biological target: T1, FBPase (Homo sapiens, UniProt P09467); test: FBPase inhibition in vitro; format: biochemical
T1 sequence (P09467 1-338): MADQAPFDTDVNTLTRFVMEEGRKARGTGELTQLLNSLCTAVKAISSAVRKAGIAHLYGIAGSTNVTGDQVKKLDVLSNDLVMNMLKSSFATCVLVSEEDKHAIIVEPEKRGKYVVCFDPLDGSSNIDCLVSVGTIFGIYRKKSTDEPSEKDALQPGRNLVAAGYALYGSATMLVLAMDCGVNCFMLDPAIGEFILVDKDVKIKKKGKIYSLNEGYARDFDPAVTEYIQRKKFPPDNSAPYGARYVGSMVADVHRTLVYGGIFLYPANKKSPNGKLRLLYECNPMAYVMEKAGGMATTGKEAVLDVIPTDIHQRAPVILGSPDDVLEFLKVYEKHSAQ

human recombinant CYP3A4 = biological target: T2, human recombinant CYP3A4 (Homo sapiens, UniProt P08684); test: Activation by recombinant CYP3A4 (Example F); format: in vitro ADME; settings: microsomes from baculovirus-infected insect cells co-expressing CYP3A4 and cytochrome p450 reductase
T2 construct: purchased Panvera Corp., Madison, Wis; host or cells: baculovirus-infected insect cells (microsomes)
T2 sequence (P08684 2-503): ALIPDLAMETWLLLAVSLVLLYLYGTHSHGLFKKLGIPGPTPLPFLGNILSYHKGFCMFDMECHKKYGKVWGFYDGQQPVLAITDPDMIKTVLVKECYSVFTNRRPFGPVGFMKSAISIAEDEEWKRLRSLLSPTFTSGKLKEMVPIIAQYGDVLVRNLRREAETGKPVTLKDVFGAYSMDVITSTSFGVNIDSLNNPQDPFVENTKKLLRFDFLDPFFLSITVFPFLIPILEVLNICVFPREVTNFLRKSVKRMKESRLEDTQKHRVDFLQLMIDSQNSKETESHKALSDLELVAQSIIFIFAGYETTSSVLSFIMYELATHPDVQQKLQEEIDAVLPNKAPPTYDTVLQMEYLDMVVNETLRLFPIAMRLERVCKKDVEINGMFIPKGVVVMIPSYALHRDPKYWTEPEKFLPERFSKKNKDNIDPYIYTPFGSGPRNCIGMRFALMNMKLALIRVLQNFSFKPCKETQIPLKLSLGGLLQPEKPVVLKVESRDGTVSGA
Procedure: Activation of 1.3 was evaluated in reactions containing microsomes from baculovirus-infected insect cells co-expressing human recombinant CYP3A4 and cytochrome p450 reductase (Panvera Corp., Madison, Wis.).
Methods: Reaction mixture composition was similar to that described in Example D. Reactions were terminated by addition of methanol to a final concentration of 60% and products were analyzed by HPLC as described in Example A.

[4] = Chemical stability in potassium phosphate buffers (Example A); format: physicochemical; settings: pH 7.0 potassium phosphate buffer, room temperature, 12-hour incubation
Procedure: Methods: Aliquots of a 10 μg/mL solution of Compound 1.3 in potassium phosphate buffers at pH 3 and 7 (room temperature) were sampled hourly for 12 hours. Samples were analyzed by reverse phase HPLC with use of a Beckman Ultrasphere C8 column (4.6×250 mm). The column was equilibrated and eluted with a gradient from 50 mM sodium phosphate pH 5.5 to 80% acetonitrile at a flow rate of 1.0 mL/min. Detection was at 254 nm. Under these conditions, Compound 1.3 was separated from 2-Amino-5-isobutyl-4-[2-(5-phosphonomonoamide)furanyl]thiazole, and from 2-Amino-5-isobutyl-4-(2-furanyl)thiazole (retention times=17, 15.8, and 15.6 min., respectively).

mouse = test: Byproduct toxicity testing in vivo (Example N)
Procedure: Plasma samples are subjected to a standard chemistry panel in which markers of liver function are evaluated.

SMILES: CC(C)Cc1sc(N)nc1-c1ccco1 [2-Amino-5-isobutyl-4-(2-furanyl)thiazole]
IC50 ([1]; Rattus norvegicus, Hepatocyte): 2.5 µM

SMILES: Nc1ncnc2c1ncn2[C@@H]1O[C@H](COP2(=O)NC(c3ccccc3)CCO2)[C@@H](O)[C@@H]1O (stereo partly drawn) [Compound 3.1, 5′-O-(2-oxo-4-Phenyl-1,3,2-oxazaphosphorin-2-yl)-9-β-D-arabinofuranosyl-adenine]
Intracellular concentration of nucleoside triphosphate (AraATP from 3.1, acyclovir-triphosphate from 3.2) (rat hepatocytes): 15.7 ± 16 nmol/g

SMILES: C=CC(=O)c1ccccc1 [Phenyl vinyl ketone]
teratogenic activity (rat embryos in culture): lacks teratogenic activity

SMILES: Cc1nc2c([nH]1)c(=O)n(C)c(=O)n2Cc1ccco1 [furafylline]
inhibition of formation of MPO2—(NHR^6−) from prodrug [2]: no significant inhibition

inhibition of formation of MPO2—(NHR^6−) from prodrug [2]: no significant inhibition
SMILES: Nc1ccc(S(=O)(=O)Nc2ccnn2-c2ccccc2)cc1 [sulfaphenazole]

SMILES: CSc1sc(N)nc1-c1ccc(P2(=O)OC(c3ccccc3)CCN2C)o1 (centres unmarked) [Compound 1.7, 2-Amino-5-methylthio-4-{2-[5-(N-methyl-1-phenyl-1,3-propyl)phosphoramido]furanyl}thiazole]
levels of 2-Amino-5-methylthio-4-[2-(5 phosphono)furanyl]thiazole formed [3]: 20.5 ± 3 nmol/g

inhibition of FBPase in vitro (FBPase): not an inhibitor
rate of generation of 2-Amino-5-isobutyl-4-[2-(5-phosphonomonoamide)furanyl]thiazole (human recombinant CYP3A4): 4.2 nmoles/min./nmole CYP3A4
stability [4]: fully stable
SMILES: CC(C)Cc1sc(N)nc1-c1ccc(P2(=O)NCCC(c3ccccc3)O2)o1 (centres unmarked) [Compound 1.3, 2-Amino-5-isobutyl-4-{2-[5-(1-phenyl-1,3-propyl)phosphoramido]furanyl}thiazole]
IC50 [1]: 8.5 µM
lower potency relative to 2-Amino-5-isobutyl-4-(2-furanyl)thiazole ([1]; ratio of IC50's for glucose production): ~3 fold

SMILES: CC(=O)Nc1ccc(O)cc1 [Acetaminophen]
reduction of hepatic glutathione (mouse; 50, 250 and 500 mg/kg): dose-dependent reduction
depletion of hepatic glutathione (mouse; highest dose): > 80%

SMILES: CC(=O)N1CCN(c2ccc(OCC3COC(Cn4ccnc4)(c4ccc(Cl)cc4Cl)O3)cc2)CC1 (centres unmarked) [Ketoconazole]
inhibition of formation of MPO2—(NHR^6−) from prodrug [2]: inhibits the formation of MPO2—(NHR^6−) in a dose-dependent fashion
